This is an account of results in patent publication US20240067651A1 (Biohaven Therapeutics Ltd., priority 2019, published 2024).

The nature of data set [1]: Stability in Simulated Gastric Fluid (SGF). Type of data set: in vitro ADME. The arrangement: key: % parent compound remaining relative to 0-minute sample. A digest of the protocol: (§1)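 LC-MS/MS read-out of intact compound (2 μg/mL final) over 60 minutes at 37° C; gastric medium pH 1.2 with pepsin, intestinal medium pH 6.8 with pancreatin. Half-life from ln(% remaining) against time.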

Another data set is described as follows: Plasma Stability. Format: in vitro ADME, human. A digest of the protocol:
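Parent compound quantified by LC-MS/MS after acetonitrile precipitation, reported as percent of control remaining (triplicate). Incubation: 1 hour, 37° C, fresh human plasma, compound at 1 μM.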

Data set [2] is described as follows: Stability in Simulated Intestinal Fluid (SIF). Format: in vitro ADME. Details: key: % parent compound remaining relative to 0-minute sample. The method in brief: as §1
For another data set, the system named is Caco-2 monolayer. Put plainly: Caco-2 Permeability Assay. Format: in vitro ADME, human. The method in brief:
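Bidirectional transport at 37 °C for 90 min, 10 μM donor concentration, with or without Pgp inhibitor, across 21-day Caco-2 monolayers with TEER >600 […] in HEPES-buffered HBSS, pH 7.4. LC-MS/MS of donor and receiver samples gives Papp, B→A/A→B efflux ratio and mass recovery.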
For orientation: Caco-2 monolayers are a common model of the intestinal barrier.

The mark [3] stands for this setting: % remaining at 1 h, SGF with pepsin pH 1.2, 2 μg/mL, 37° C.
The mark [4] stands for this setting: % remaining at 1 h, human plasma, 1 μM, 37° C.
[5] abbreviates: % remaining at 1 h, SIF with pancreatin pH 6.8, 2 μg/mL, 37° C.
Setting [6] is: donor 10 μM, 90 minutes, 37° C., direction not given.
Where [7] appears, read: % remaining at 1 h in simulated gastric fluid.
Setting [8] is: % remaining at 1 h in human plasma.
Where [9] appears, read: % remaining at 1 h in simulated intestinal fluid.
The mark [10] stands for this setting: % @ 1 h (remaining) in simulated gastric fluid.
Setting [11] is: % @ 1 h (remaining) in human plasma.
The mark [12] stands for this setting: % @ 1 h (remaining) in simulated intestinal fluid.

Regarding `CC(C)OCCn1c(=S)[nH]c(=O)c2c1ccn2COC(=O)[C@H]1CCCN1C(=O)OC(C)(C)C` [Example 3, 1-tert-butyl 2-{4-oxo-1-[2-(propan-2-yloxy)ethyl]-2-sulfanylidene-1H,2H,3H,4H,5H-pyrrolo[3,2-d]pyrimidin-5-yl} methyl (2R)-pyrrolidine-1,2-dicarboxylate], the SGF in data set [1] (setting [3]) is 84%. Further, the “human Plasma stability” value in the data set “Plasma Stability” (setting [4]) is listed as 99%. Also, in data set [2] (setting [5]), the SIF was 89%. For the same molecule, in the data set on Caco-2 monolayer (setting [6]), the “Caco-2 Papp” value was 41.9 ×10⁻⁶ cm/s.

With `CC(C)OCCn1c(=S)[nH]c(=O)c2c1ccn2COC(=O)[C@H]1CCCN1C(=O)OCC1c2ccccc2-c2ccccc21` [Example 5, 1-(9H-fluoren-9-ylmethyl) 2-{4-oxo-1-[2-(propan-2-yloxy)ethyl]-2-sulfanylidene-1H, 2H,3H,4H,5H-pyrrolo[3,2-d]pyrimidin-5-yl}methyl(2R)-pyrrolidine-1,2-dicarboxylate], the SGF in data set [1] (setting [3]) is 90%. The “human Plasma stability” value in “Plasma Stability” (setting [4]) turned out to be 97%. The SIF in data set [2] (setting [5]) is on record as 76%. Moreover, the “Caco-2 Papp” value in the data set on Caco-2 monolayer (setting [6]) came to 14 ×10⁻⁶ cm/s.

With `CC(C)OCCn1c(=S)[nH]c(=O)c2c1ccn2COC(=O)CCCCNC(=O)CN.O=C(O)C(F)(F)F` [Example 15, trifluoroacetic acid {4-oxo-1-[2-(propan-2-yloxy)ethyl]-2-sulfanylidene-1H,2H,3H,4H,5H-pyrrolo[3,2-d]pyrimidin-5-yl} methyl 5-(2-aminoacetamido)pentanoate], the SGF in data set [1] (setting [7]) is 100%. Besides, the “human Plasma stability” value in the data set “Plasma Stability” (setting [8]) turned out to be 9% remaining. In data set [2] (setting [9]), the SIF is on record as 4% remaining. In the data set on Caco-2 monolayer (Caco-2 monolayer), the “Caco-2 Papp” value is above 0.567 ×10⁻⁶ cm/s.

Take `CC(C)OCCn1c(=S)[nH]c(=O)c2c1ccn2COC(=O)CCCCNC(=O)[C@@H]1CCC(=O)N1C(=O)OCc1ccccc1.O=C(O)C(F)(F)F` [Example 16, trifluoroacetic acid benzyl (5S)-2-oxo-5-{[5-oxo-5-({4-oxo-1-[2-(propan-2-yloxy)ethyl]-2-sulfanylidene-1H,2H,3H,4H,5H-pyrrolo[3,2-d]pyrimidin-5-yl}methoxy)pentyl]carbamoyl} pyrrolidine-1-carboxylate]: in data set [1] (setting [7]), the SGF was 96% remaining. In addition, the “human Plasma stability” value in the data set “Plasma Stability” (setting [8]) came to 21% remaining. In addition, in data set [2] (setting [9]), the SIF is recorded as 93% remaining. Besides, the “Caco-2 Papp” value in the data set with Caco-2 monolayer (Caco-2 monolayer) stood at 0.903 ×10⁻⁶ cm/s.

Turning to `CC(C)OCCn1c(=S)[nH]c(=O)c2c1ccn2COC(=O)CCNC(=O)[C@@H]1CCC(=O)N1C(=O)OCc1ccccc1.O=C(O)C(F)(F)F` [Example 17, trifluoroacetic acid benzyl (5S)-2-oxo-5-{[3-oxo-3-({4-oxo-1-[2-(propan-2-yloxy)ethyl]-2-sulfanylidene-1H,2H,3H,4H,5H-pyrrolo[3,2-d]pyrimidin-5-yl}methoxy)propyl]carbamoyl} pyrrolidine-1-carboxylate], the SGF in data set [1] (setting [7]) is on record as 99% remaining. In addition, the “human Plasma stability” value in “Plasma Stability” (setting [8]) is 38% remaining. Also, in data set [2] (setting [9]), the SIF was 3% remaining. Besides, the “Caco-2 Papp” value with Caco-2 monolayer (Caco-2 monolayer) stood at 0.368 ×10⁻⁶ cm/s.

On to `CC(C)OCCn1c(=S)[nH]c(=O)c2c1ccn2COC(=O)CCCCNC(=O)[C@@H](N)CCc1ccccc1.O=C(O)C(F)(F)F` [Example 24, trifluoroacetic acid {4-oxo-1-[2-(propan-2-yloxy)ethyl]-2-sulfanylidene-1H,2H,3H,4H,5H-pyrrolo [3,2-d]pyrimidin-5-yl} methyl 5-[(2S)-2-amino-4-phenylbutanamido]pentanoate], for which the SGF in data set [1] (setting [7]) is on record as 99% remaining. Besides, in the data set “Plasma Stability” (setting [8]), the “human Plasma stability” value is 1% remaining. Further, the SIF in data set [2] (setting [9]) is recorded as 76% remaining. Moreover, the “Caco-2 Papp” value in the data set on Caco-2 monolayer (Caco-2 monolayer) was determined as 0.302 ×10⁻⁶ cm/s.

Take `CSCC[C@H](N)C(=O)NCCC(=O)OCn1ccc2c1c(=O)[nH]c(=S)n2CCOC(C)C.O=C(O)C(F)(F)F` [Example 32, trifluoroacetic acid {4-oxo-1-[2-(propan-2-yloxy)ethyl]-2-sulfanylidene-1H,2H,3H,4H,5H-pyrrolo [3,2-d]pyrimidin-5-yl} methyl 3-[(2S)-2-amino-4-(methylsulfanyl)butanamido]propanoate]: the SGF in data set [1] (setting [7]) is on record as 97% remaining. The “human Plasma stability” value in “Plasma Stability” (setting [8]) stood at 17% remaining. Moreover, in data set [2] (setting [9]), the SIF is 33% remaining. Besides, the “Caco-2 Papp” value with Caco-2 monolayer (Caco-2 monolayer) stood at 0.147 ×10⁻⁶ cm/s.

As for `CC(C)OCCn1c(=S)[nH]c(=O)c2c1ccn2COC(=O)CCCCNC(=O)[C@@H]1CCCN1C(N)=O.O=C(O)C(F)(F)F` [Example 69, trifluoroacetic acid {4-oxo-1-[2-(propan-2-yloxy)ethyl]-2-sulfanylidene-1H,2H,3H,4H,5H-pyrrolo[3,2-d]pyrimidin-5-yl}methyl 5-{[(2S)-1-carbamoylpyrrolidin-2-yl]formamido}pentanoate Caco-2 Papp], in data set [1] (setting [7]), the SGF is given as 84% remaining. In the data set “Plasma Stability” (setting [8]), the “human Plasma stability” value came to 7% remaining. Besides, the SIF in data set [2] (setting [9]) is 94% remaining. Further, the “Caco-2 Papp” value with Caco-2 monolayer (Caco-2 monolayer) came out at 0.217 ×10⁻⁶ cm/s.

With `CC(C)OCCn1c(=S)[nH]c(=O)c2c1ccn2C(C)OC(=O)OC(C)C` (stereo not shown) [Example 92, 1-{4-oxo-1-[2-(propan-2-yloxy)ethyl]-2-sulfanylidene-1H,2H,3H,4H,5H-pyrrolo[3,2-d]pyrimidin-5-yl}ethyl propan-2-yl carbonate], the SGF in data set [1] (setting [3]) is listed as 1% remaining. The “human Plasma stability” value in the data set “Plasma Stability” (setting [4]) came out at 0% remaining. Also, the SIF in data set [2] (setting [5]) is 74% remaining. The “Caco-2 Papp” value in the data set on Caco-2 monolayer (setting [6]) is reported as “unstable”.

Turning to `COCCOCCOC(=O)OCn1c(=O)c2c(ccn2COC(=O)OCCOCCOC)n(CCOC(C)C)c1=S` [Example 106, {3-[{{[2-(2-methoxyethoxy)ethoxy]carbonyl}oxy)methyl]-4-oxo-1-[2-(propan-2-yloxy)ethyl]-2-sulfanylidene-1H,2H,3H,4H,5H-pyrrolo[3,2-d]pyrimidin-5-yl} methyl 2-(2-methoxyethoxy)ethyl carbonate], the SGF in data set [1] (setting [3]) was 100%. Moreover, the “human Plasma stability” value in the data set “Plasma Stability” (setting [4]) is recorded as 2%. For the same molecule, in data set [2] (setting [5]), the SIF is 1%. Besides, the Caco-2 Papp in the data set on Caco-2 monolayer (unit inferred) was determined as 13.9 ×10⁻⁶ cm/s.

Consider `CC(C)OCCn1c(SCOC(=O)OCCOCCN)nc(=O)c2c1ccn2COC(=O)OCCOCCN.O=C(O)C(F)(F)F.O=C(O)C(F)(F)F` [Example 124], for which the SGF in data set [1] (setting [7]) is given as 67% remaining. In addition, the “human Plasma stability” value in the data set “Plasma Stability” (setting [8]) was determined as 28% remaining. In addition, in data set [2] (setting [9]), the SIF is recorded as 57% remaining. Further, the “Caco-2 Papp” value with Caco-2 monolayer (Caco-2 monolayer) is 1.18 ×10⁻⁶ cm/s.

Regarding `CC(C)OCCn1c(=S)[nH]c(=O)c2c1ccn2COC(=O)[C@@H]1CCN(C(=O)OC(C)(C)C)C1` [Example 129, 1-tert-butyl 3-{4-oxo-1-[2-(propan-2-yloxy)ethyl]-2-sulfanylidene-1H,2H,3H,4H,5H-pyrrolo[3,2-d]pyrimidin-5-yl} methyl (3R)-pyrrolidine-1,3-dicarboxylate], the SGF in data set [1] (setting [7]) is 84% remaining. Also, the “human Plasma stability” value in “Plasma Stability” (setting [8]) is 1% remaining. Further, the SIF in data set [2] (setting [9]) was 21% remaining. The “Caco-2 Papp” value with Caco-2 monolayer (Caco-2 monolayer) is 12.1 ×10⁻⁶ cm/s.

`CCCCN(C)C(=O)OCSc1nc(=O)c2c(ccn2COC(=O)N(C)CCCC)n1CCOC(C)C` [Example 162, {2-[{{[butyl(methyl)carba-moyl]oxy}methyl)sulfanyl]-4-oxo-1-[2-(propan-2-yloxy)ethyl]-1H,4H,5H-pyrrolo[3,2-d]pyrimidin-5-yl}methyl N-butyl-N-methylcarbamate]: in data set [1] (setting [10]), the SGF is on record as 98% @ 1 h. In addition, the “human Plasma stability” value in “Plasma Stability” (setting [11]) is 96% @ 1 h. In addition, in data set [2] (setting [12]), the SIF is 96% @ 1 h. The “Caco-2 Papp” value in the data set on Caco-2 monolayer (Caco-2 monolayer) turned out to be 28.7 ×10⁻⁶ cm/s.

On to `CCN(C)C(=O)OCSc1nc(=O)c2c(ccn2COC(=O)N(C)CC)n1CCOC(C)C.O=C(O)C(F)(F)F` [Example 169, trifluoroacetic acid {2-[{{[ethyl(methyl)carba-moyl]oxy}methyl)sulfanyl]-4-oxo-1-[2-(propan-2-yloxy)ethyl]-1H,4H,5H-pyrrolo[3,2-d]pyrimidin-5-yl}methyl N-ethyl-N-methylcarbamate], for which, in data set [1] (setting [10]), the SGF is 99% @ 1 h. Further, in the data set “Plasma Stability” (setting [11]), the “human Plasma stability” value turned out to be 89% @ 1 h. The SIF in data set [2] (setting [12]) is recorded as 81% @ 1 h. Also, the “Caco-2 Papp” value in the data set on Caco-2 monolayer (Caco-2 monolayer) amounted to 10.9 ×10⁻⁶ cm/s.

On to `CC(C)OCCn1c(SCOC(=O)N(C)Cc2ccccc2)nc(=O)c2c1ccn2COC(=O)N(C)Cc1ccccc1.O=C(O)C(F)(F)F` [Example 174, trifluoroacetic acid {2-[{{[benzyl(methyl)carba-moyl]oxy}methyl)sulfanyl]-4-oxo-1-[2-(propan-2-yloxy)ethyl]-1H,4H,5H-pyrrolo[3,2-d]pyrimidin-5-yl}methyl N-benzyl-N-methylcarbamate], for which the SGF in data set [1] (setting [10]) was 99% @ 1 h. In “Plasma Stability” (setting [11]), the “human Plasma stability” value stood at 99% @ 1 h. The SIF in data set [2] (setting [12]) was 99% @ 1 h. For the same molecule, the “Caco-2 Papp” value with Caco-2 monolayer (Caco-2 monolayer) was determined as 30.4 ×10⁻⁶ cm/s.

For `CC(C)OCCn1c(=S)[nH]c(=O)c2c1ccn2CO` [Example 197], in data set [1] (% remaining at 1 h in simulated gastric fluid, the 15th table), the SGF is reported as 98% remaining. Moreover, the “human Plasma stability” value in the data set “Plasma Stability” (% remaining at 1 h in human plasma, the 15th table) worked out at 86% remaining. In addition, in data set [2] (% remaining at 1 h in simulated intestinal fluid, the 15th table), the SIF is reported as 55% remaining. Further, the “Caco-2 Papp (nm/s)” value in the data set with Caco-2 monolayer (Caco-2 monolayer, the 15th table) is reported as “unstable”.
